According to patent US6083915A, “Method for treating liver cancer” (Biomeasure, Inc., priority 1991, dated 2000):

Test system: M5123 hepatoma
Format: in vivo
Details: for % Test/Control / Tumor Weight (mg) Day 18: 100 μg/inj., s.c., b.i.d., q.d. 1-20; for % Test/Control: day 18; for Tumor Weight (mg) Day 18: mean ± s.e.m.
Text: The M5123 hepatoma cells, obtained from Dr. H. P. Morris at the National Cancer Institute, were induced in the Buffalo strain of rats by ingestion of N-(2-fluorenyl-phthalamic acid) and established in serial transplantation. Implantation of the M5123 hepatoma cells in an immunodeficient athymic mouse reproducibly results in progressively growing, lethal tumor.
In contrast to the subrenal capsule assay, in the subcutaneous assay, tumor xenografts are implanted subcutaneously, rather than under the subrenal capsule, and treatment can be initiated at any selected time after the implantation.
In this assay, tumors were implanted subcutaneously in the right flank of athymic female mice and test compounds, BIM-26159, BIM-26187, BIM-26189, BIM-26218, BIM-26223 and BIN-26228, and control were injected subcutaneously in the left flank. For the structures of BIM-26159, BIM-26187, BIM-26189, see "Summary of the Invention" above. The structures of BIM-26223 and BIM-26228 are as follows:
Response of an implanted tumor to the treatment was monitored as follows. The length and width of the tumor were first measured using sensitive Vernier calipers. Tumor weight was then calculated based on the measurements as follows: [length (mm)×width (mm)^2 ]/2 mg. In addition to tumor size or weight, this assay system permits the parameter of "lag time", i.e., the effect of early treatment on the growth potential of tumors to reach a certain size.
In one experiment, thirty two mice were implanted subcutaneously with M5123 hepatoma xenografts on day 0 and randomized into four groups of eight animals per group. The bombesin analog BIM-26159 was administered at 250, 50, 10 μg per injection, S.C., b.i.d.,q.d. 1-18.
In another experiment, we tested the activity of five bombesin analogs, i.e., BIM-26187, BIM-26189, BIM-26218, BIM-26223 and BIM-26228, over a period of 18 days. Forty mice were implanted s.c. with M5123 hepatoma xenografts on day 0, and the randomized into ten animals in the control group and six animals per test group. All compounds were administered at 100 μg per injection, s.c., b.i.d., q.d. 1-18.

Compound | % Test/Control | Tumor Weight (mg) Day 18 | effect on growth of the tumor cells (in words) (100 μg per injection, over 18 days)
CC(C)C[C@H](NC(=O)[C@H](CC(C)C)NC(=O)[C@H](Cc1c[nH]cn1)NC(=O)CNC(=O)[C@@H](NC(=O)[C@H](C)NC(=O)[C@H](Cc1c[nH]c2ccccc12)NC(=O)[C@H](CCC(N)=O)NC(=O)[C@H](N)Cc1ccccc1)C(C)C)C(N)=O [BIM-26187, D-Phe-Gln-Trp-Ala-Val-Gly-His-Leu-Leu-NH2] | 83% | 482.8 ± 175.0 mg | 
D-Phe-Gln-Trp-Ala-Val-Gly-CHxAla-Leu-NH2 [BIM-26228] | 115% | 667.2 ± 181.6 mg | slightly stimulated growth
